Consider 35 compounds from patent publication US8921398B2 (Boehringer Ingelheim International GmbH, priority 2011, dated 2014).

The first assay concerns the target T1, human GPR119 (Homo sapiens, UniProt Q8TDV5).
T1 construct: expression vector for human GPR119 cDNA (Acc. No. NP_848566); expressed in transfected cells
T1 sequence (Q8TDV5 1-335): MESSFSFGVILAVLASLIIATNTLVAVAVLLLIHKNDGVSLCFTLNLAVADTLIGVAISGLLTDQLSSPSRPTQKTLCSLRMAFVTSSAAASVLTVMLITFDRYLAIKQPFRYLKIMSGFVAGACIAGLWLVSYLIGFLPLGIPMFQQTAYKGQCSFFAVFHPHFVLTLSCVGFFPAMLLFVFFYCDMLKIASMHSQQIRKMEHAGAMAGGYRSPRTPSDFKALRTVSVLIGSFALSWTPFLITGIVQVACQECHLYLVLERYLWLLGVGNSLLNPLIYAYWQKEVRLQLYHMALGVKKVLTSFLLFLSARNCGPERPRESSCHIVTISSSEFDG
As to the kind of experiment: AlphaScreen cAMP assay in MIN6 cells stably transfected with human GPR119. Particulars: Min-6/hGPR119 cells, 45 minutes incubation at room temperature. The format is cell-based. The method, then:
The compounds of formula I according to the invention modulate the activity of the G-protein-coupled receptor GPR119. The effect of the compounds on the activation of GPR119 and on the stimulation of intracellular cAMP concentration is determined using the AlphaScreen cAMP Assay Kit (Cat.No.#6760625R) made by PerkinElmer.
MIN6 cells [Miyazaki J et al. Endocrinology. 1990 July; 127(1):126-32] are stably transfected with an expression vector for human GPR119 cDNA (Acc. No. NP_848566). Min-6/hGPR119 cells are cultured in DMEM, 10% FBS, 50 μM β-mercaptoethanol, 0.3 mg/mL Geniticin, 2 mM GlutaMAX at 37° C. 5% CO2. For the assay, the cells are seeded in Optiplates (white, 384-well, 160W-barcoded, TC, sterile with lid, Cat.No.#6007688 (Perkin Elmer); 10000 cells/well; 50 μl). The plates covered with lids are then incubated for 24 hours at 37° C./5% CO2. After the medium is aspirated from the wells completely, 10 μl of the test compound are added, the compounds are diluted using stimulating buffer (140 mM NaCl, 3.6 mM KCl, 0.5 mM NaH2PO4, 0.5 mM MgSO4, 1.5 mM CaCl2, 10 mM Hepes, 5 mM NaHCO3; pH 7.4. 0.5 mM IBMX and 0.1% BSA, the final DMSO concentration is 1%). After 45 minutes incubation at room temperature (approx. 20° C.), the cAMP concentrations are determined using the AlphaScreen cAMP Assay Kit (Cat.No.#6760625R from PerkinElmer).
A general note: Alpha assays give light when donor and acceptor beads are brought close together.
As a reminder, the EC50 is the concentration giving half of the maximal effect. On to `O=C(c1cnc(-n2ccnc2)nc1)N(C1CC1)C1CCN(c2nc(-c3ccccc3)no2)CC1` [Example 1, 2-Imidazol-1-yl-pyrimidine-5-carboxylic acid cyclopropyl-[1-(3-phenyl-[1,2,4]oxadiazol-5-yl)-piperidin-4-yl]-amide], for which the EC50 was determined as 31 nM.
On the same count and under the same terms, the same measure for `O=C(c1cnc(-c2ccncc2)nc1)N(C1CC1)C1CCN(c2nc(-c3ccccc3)no2)CC1` [Example 2, 2-Pyridin-4-yl-pyrimidine-5-carboxylic acid cyclopropyl-[1-(3-phenyl-[1,2,4]oxadiazol-5-yl)-piperidin-4-yl]-amide]: 11 nM.
`CCOc1ccc(-c2ncc(C(=O)N(C3CC3)C3CCN(c4ncc(CC)cn4)CC3)cn2)cn1` [Example 3, 2-(6-Ethoxy-pyridin-3-yl)-pyrimidine-5-carboxylic acid cyclopropyl-[1-(5-ethyl-pyrimidin-2-yl)-piperidin-4-yl]-amide] came in with an EC50 of 487 nM.
In turn, `CCc1cnc(N2CCC(N(C(=O)c3cnc(-c4ccc(C#N)c(F)c4)nc3)C3CC3)CC2)nc1` [Example 4] registered an EC50 of 94 nM.
The compound `CCc1cnc(N2CCC(N(C(=O)c3cnc(-c4ccc(CC#N)cc4)nc3)C3CC3)CC2)nc1` [Example 5, 2-(4-Cyanomethyl-phenyl)-pyrimidine-5-carboxylic acid cyclopropyl-[1-(5-ethyl-pyrimidin-2-yl)-piperidin-4-yl]-amide] yielded an EC50 of 118 nM.
The compound `CC(C)c1noc(N2CCC(N(C(=O)c3ccc(-c4ccc(S(C)(=O)=O)cc4)nc3)C3CC3)CC2)n1` [Example 6, N-Cyclopropyl-N-[1-(3-isopropyl-[1,2,4]oxadiazol-5-yl)-piperidin-4-yl]-6-(4-methanesulfonyl-phenyl)-nicotinamide] gave an EC50 of 96 nM.
`CCOc1ccc(-c2ncc(C(=O)N(C3CC3)C3CCN(c4nc(-c5ccccc5)no4)CC3)cn2)cn1` [Example 7, 2-(6-Ethoxy-pyridin-3-yl)-pyrimidine-5-carboxylic acid cyclopropyl-[1-(3-phenyl[1,2,4]oxadiazol-5-yl)-piperidin-4-yl]amide] had an EC50 of 25 nM. Against the preceding compound, the EC50 is about 3.8-fold lower.
Turning to `CCc1noc(N2CCC(N(C(=O)c3cnc(-c4ccc(CC#N)cc4)nc3)C3CC3)CC2)n1` [Example 8, 2-(4-Cyanomethyl-phenyl)-pyrimidine-5-carboxylic acid cyclopropyl-[1-(3-ethyl-[1,2,4]oxadiazol-5-yl)-piperidin-4-yl]-amide], a half-maximal response (EC50) required 36 nM.
The compound `N#CCc1ccc(-c2ncc(C(=O)N(C3CC3)C3CCN(c4nc(-c5ccccc5)no4)CC3)cn2)cc1` [Example 9, 2-(4-Cyanomethyl-phenyl)-pyrimidine-5-carboxylic acid cyclopropyl-[1-(3-phenyl-[1,2,4]oxadiazol-5-yl)-piperidin-4-yl]-amide] had an EC50 of 19 nM.
`CCOc1ccc(-c2ncc(C(=O)N(C3CC3)C3CCN(c4nc(CC)no4)CC3)cn2)cn1` [Example 10, 2-(6-Ethoxy-pyridin-3-yl)-pyrimidine-5-carboxylic acid cyclopropyl-[1-(3-ethyl-[1,2,4]oxadiazol-5-yl)-piperidin-4-yl]-amide] gave a concentration for a half-maximal effect (EC50) of 101 nM.

In another assay the target is T2, mutant form of the human GPR119 receptor (Homo sapiens, UniProt Q8TDV5, S329A/T327A).
T2 construct: expressed in transfected cells
T2 sequence (Q8TDV5 with tags, fused parts or gaps T327A/S329A): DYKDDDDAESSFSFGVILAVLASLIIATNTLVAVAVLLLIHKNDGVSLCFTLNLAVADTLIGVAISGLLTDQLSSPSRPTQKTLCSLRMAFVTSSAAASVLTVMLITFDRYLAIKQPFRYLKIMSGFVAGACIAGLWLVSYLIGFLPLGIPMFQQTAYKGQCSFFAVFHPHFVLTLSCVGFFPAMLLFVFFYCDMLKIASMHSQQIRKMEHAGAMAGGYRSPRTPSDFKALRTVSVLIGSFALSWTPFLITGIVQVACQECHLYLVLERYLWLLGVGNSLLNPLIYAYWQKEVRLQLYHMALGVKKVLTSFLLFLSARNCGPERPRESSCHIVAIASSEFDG
Kind of assay: LANCE cAMP-384 assay in HEK293 cells stably expressing a mutant form of the human GPR119 receptor. Particulars: cAMP accumulation, GPR119 stable HEK293 cells, LANCE kit, 20 min at 37° C. The class given is cell-based. As to the method: Quantitative detection of cAMP accumulation from cells expressing human GPR119 receptor is achieved using Perkin Elmer's LANCE cAMP-384 Kit (Cat#AD0264) according to the manufacturer's protocol. Briefly, HEK293 cells stably expressing a mutant form of the human GPR119 receptor as assay tool (Methionine 1 replaced with the amino acid sequence […], and T327 & S329 changed to alanines; SEQ ID No. 1) are grown to 50-70% confluency in cell culture media (DMEM, 10% heat inactivated Fetal Bovine Serum, 50 I.U./mL penicillin, 50 μg/mL streptomycin, 10 mM HEPES, 20 μg/mL G418 Sulfate). On the day of the assay, GPR119 stable HEK293 cells are lifted from the tissue culture plate and 1000 cells/well are incubated along with various concentrations of test compounds for 20 min at 37° C. Detection Buffer (50 mM HEPES, 10 mM calcium chloride, 0.35% Triton X-100, 1 mg/mL BSA) containing cAMP-specific antibody is then added to all wells and allowed to equilibrate in the dark for 10 minutes at room temperature. Upon equilibration, Detection Buffer containing europium-labeled cAMP tracer complex is added to all wells and allowed to react for 1 hour at room temperature. After 1 hour, bound europium-labeled cAMP tracer is measured using a Perkin Elmer Envision plate reader. The quantity of cAMP generated in each well is derived from a standard curve. EC50 is determined using nonlinear regression analysis of the cAMP values over a range of agonist concentration (12 points spanning the range from 30 μM to 100 pM).
For orientation: Time-resolved FRET reads energy transfer from a long-lived donor to a nearby acceptor.
The compound `O=C(c1cnc(-n2cncn2)nc1)N(C1CC1)C1CCN(c2ncc(C(F)(F)F)cc2F)CC1` [Example 47] had a half-maximal effective concentration (EC50) of 125 nM.
Regarding `Cc1ncn(-c2cnc(C(=O)N(C3CC3)C3CCN(c4ncc(C(F)(F)F)cc4F)CC3)cn2)n1` [Example 48], the EC50 came out at 27 nM.
In the case of `Cc1nnnn1-c1ccc(C(=O)N(C2CC2)C2CCN(c3ncc(C(F)(F)F)cc3F)CC2)cn1` [Example 49], the EC50 came out at 9 nM.
Still for that read-out and setting: the same measure for `Cc1ncnn1-c1ncc(C(=O)N(C2CC2)C2CCN(c3ncc(C(F)(F)F)cc3F)CC2)cn1` [Example 50]: 148 nM; for `Cc1nccn1-c1ccc(C(=O)N(C2CC2)C2CCN(c3nc(C(C)C)no3)CC2)cn1` [Example 51]: 593 nM; for `Cc1ncnn1-c1ccc(C(=O)N(C2CC2)C2CCN(c3nc(C(C)C)no3)CC2)cn1` [Example 52]: 231 nM.
With `Cc1nccn1-c1cnc(C(=O)N(C2CC2)C2CCN(c3nc(C(C)C)no3)CC2)cn1` [Example 53], the response was half-maximal at 808 nM (EC50).
In the case of `CC(C)c1noc(N2CCC(N(C(=O)c3cnc(-n4cncn4)cn3)C3CC3)CC2)n1` [Example 54], a half-maximal response (EC50) required 812 nM.
For `Cc1nccn1-c1ncc(C(=O)N(C2CC2)C2CCN(c3nc(C(C)C)no3)CC2)cn1` [Example 55], a half-maximal response (EC50) required 512 nM.
Same read-out and setting: the same measure for `Cc1ncn(-c2cnc(C(=O)N(C3CC3)C3CCN(c4nc(C(C)C)no4)CC3)cn2)n1` [Example 56]: 473 nM.
On the same count and under the same terms, the same measure for `Cc1nnnn1-c1ccc(C(=O)N(C2CC2)C2CCN(c3nc(C(C)C)no3)CC2)cn1` [Example 57]: 231 nM; for `CCc1cnc(N2CCC(N(C(=O)c3ccc(-n4ccnc4C)nc3)C3CC3)CC2)nc1` [Example 58]: 553 nM.
The same measure, in the same setting: the same measure for `CCc1cnc(N2CCC(N(C(=O)c3cnc(-n4ccnc4C)cn3)C3CC3)CC2)nc1` [Example 59]: 1240 nM; for `CCc1cnc(N2CCC(N(C(=O)c3cnc(-n4cncn4)cn3)C3CC3)CC2)nc1` [Example 60]: 29 nM.
`CCc1cnc(N2CCC(N(C(=O)c3cnc(-n4cncn4)nc3)C3CC3)CC2)nc1` [Example 61] gave an EC50 of 98 nM. This EC50 lies about 3.4-fold higher than the previous one.
The compound `CCc1cnc(N2CCC(N(C(=O)c3cnc(-n4cnc(C)n4)cn3)C3CC3)CC2)nc1` [Example 62] yielded an EC50 of 185 nM.
`Cc1nccn1-c1ccc(C(=O)N(C2CC2)C2CCN(c3ncc(Cl)cn3)CC2)cn1` [Example 63] gave an EC50 of 385 nM. This EC50 is about 2.1-fold higher than that of the compound before.
For the compound `Cc1ncnn1-c1ccc(C(=O)N(C2CC2)C2CCN(c3ncc(Cl)cn3)CC2)cn1` [Example 64], the EC50 came out at 252 nM.
`Cc1nccn1-c1cnc(C(=O)N(C2CC2)C2CCN(c3ncc(Cl)cn3)CC2)cn1` [Example 65] returned an EC50 of 333 nM. This EC50 and that of the compound before are within 1.5-fold of each other.
Same read-out and setting: the same measure for `O=C(c1cnc(-n2cncn2)nc1)N(C1CC1)C1CCN(c2ncc(Cl)cn2)CC1` [Example 66]: 73 nM; for `Cc1nccn1-c1ncc(C(=O)N(C2CC2)C2CCN(c3ncc(Cl)cn3)CC2)cn1` [Example 67]: 45 nM.
On the same count and under the same terms, the same measure for `Cc1ncn(-c2cnc(C(=O)N(C3CC3)C3CCN(c4ncc(Cl)cn4)CC3)cn2)n1` [Example 68]: 125 nM; for `CCc1cnc(N2CCC(N(C(=O)c3cn(-c4ccc(C#N)cn4)cn3)C3CC3)CC2)nc1` [Example 104]: 61 nM.
`CCc1cnc(N2CCC(N(C(=O)c3cn(-c4ccc(S(C)(=O)=O)cc4F)cn3)C3CC3)CC2)nc1` [Example 105] gave an EC50 of 233 nM.
The same measure, in the same setting: the same measure for `CCc1cnc(N2CCC(N(C(=O)c3cn(-c4ccc(C#N)cc4F)cn3)C3CC3)CC2)nc1` [Example 106]: 57 nM.
